Test results as given in publication PMC10685318, “Trans-cyclosulfamidate mannose-configured cyclitol allows isoform-dependent inhibition of GH47 α-D-mannosidases through a bump–hole strategy” (Chemical Science, 2023).
Where a chain is given by its changes, count along the chain named. Names and notes keep the numbering of the source. One block for each molecule: values may come before it.

Assays:
[1] = Chemical stability of the final compounds on storage; type: physicochemical; settings: storage for a week at room temperature
Text: 1,6-Cis-manno-cyclosulfate, 4, and 1,6-trans-manno-cyclosulfate, 5, were synthesized from mannose-configured cis-diol and trans-diol, respectively (ESI, Scheme S1 ^†).

[2] = molecular target: GH47 model enzyme from Caulobacter K31 strain; settings: cited from earlier work
[3] = substrate: OC[C@H]1O[C@H](O[C@@H]2C(O)O[C@H](CO)[C@@H](O)[C@@H]2O)[C@@H](O)[C@@H](O)[C@@H]1O; test: purified protein, by the assay type; settings: other: CkGH47 WT, substrate; pH 7.0
[4] = substrate: OC[C@H]1O[C@H](O[C@@H]2C(O)O[C@H](CO)[C@@H](O)[C@@H]2O)[C@@H](O)[C@@H](O)[C@@H]1O; test: purified protein, by the assay type; type: biochemical, Caulobacter K31 strain; settings: other: CkGH47 L310S, substrate; pH 7.0
Procedure: Fig. 4 Catalytic activity of CkGH47 WT compared to the CkGH47 L310S mutant. […] (C) The Ki, derived from the gradient (1/Ki), for 6 against CkGH47 L310S.
Trans-Cyclosulfamidate Cyclitols Males et al.
2.1 Biochemical and biological methods
To obtain Michaelis-Menten kinetics
Lastly, to achieve an inhibition constant, the
The gradient of the graph, V0/Vi
After taking each time point, the sample was heat denatured at 95 °C for 5 minutes. The reactions were conducted in triplicate and averaged. […]
microplate spectrophotometer (BioTek). The mannose detection kit (Megazyme) was used to detect […]
dehydrogenase, was monitored at 340 nm. The absorbance after hexokinase was added to the mixture […]
2.1.2 Isothermal titration calorimetry
MicroCal ITC200 calorimeter at 25 °C over 20 injections. The experiment was duplicated to obtain a […]
the MicroCal PEAK-ITC analysis software.
2.2 Crystallographic data collection and refinement of CkGH47
3′ and the reverse primer was 5′-[…]-3′. Protein production and purification was followed as described previously.[3]
Reference data in the form of a
Refinement of the model was conducted […]
conformation was conducted using […]. Details of the data collection and refinement statistics […]
Figures of the structure were produced by using CCP4mg.

stability on storage [1]: compound degradation
Molecule: O=S1(=O)O[C@@H]2[C@@H](O)[C@@H](O)[C@H](O)[C@@H](CO)[C@H]2O1 [compound 5, 1,6-trans-manno-cyclosulfate]

stability on storage [1]: compound degradation
Molecule: O=S1(=O)O[C@@H]2[C@@H](O)[C@@H](O)[C@H](O)[C@@H](CO)[C@@H]2O1 [compound 4, 1,6-cis-manno-cyclosulfate]

Molecule: O=C1N[C@@H]2[C@@H](O)[C@@H](O)[C@H](O)[C@@H](CO)N2C1=O [kifunensine]
Kd [2]: 0.039 µM

Molecule: OC[C@H]1NC[C@@H](O)[C@@H](O)[C@@H]1O [DMJ, 1-deoxymannojirimycin]
Kd [2]: 0.481 µM

Molecule: OC[C@@H]1[C@@H](O)[C@H](O)[C@H](O)c2nccn21 [mannoimidazole]
Kd [2]: 0.047 µM

B1: CkGH47 WT (Caulobacter sp. K31) (protein)
chain: AAETTPEDWKALAADVRSEFQWAWQGYVAKAWGKDEINPVSGTSRSFFIEGHDLGLSLVEALDTLWIMGLDAEFQAGVDWVKANLSFDVDGNAQVFETNIRLVGGLLSAHLASGDPVLLAKARDLADRLAKAFEASPHGLPWRYVNLRTGAVSDPETNLAEIGTYLSEFGVLSQLTGERKYFDMAKRAMRHTLDRRSKIGLMAANIHAMTGAFTSRNASIDVYADSFYEYLWDAWALFGDEDCKRWAVECVDAQLAHQAKRYDGRLWFPMVDFETGAVTGTAQSELAAYYAGLLGQVGRKAQGDDYLASFTYLQATFGVIPESIDVTTGQPRRKHTGLRPEYPDACLNLWLIDRDPRYRRLAAIHYREMKATSRAAFGYTALKDITTRPMTQDDNCPGYWWSEQMKYYYLLFSDTPRIDYGQLQLSTEANVLRGFRKV
Km [3]: 65.7 ± 14.2 µM

B2: CkGH47 L310S (Caulobacter sp. K31; L310S) (protein)
chain: B1 chain with L286S
Km [4]: 402.8 ± 71.3 µM
